Test results: patent US9668988B2, “Controlled release oral pharmaceutical dosage forms comprising MGBG” (Pathologica LLC, priority 2011, dated 2017)

Key:
[1] = test system: carrageenan-induced paw edema; test: murine carrageenan-induced paw edema model; assay type: in vivo, mice; conditions: PO BID (totaling 60 mg/kg/day)
Description: (§1) In both the murine carrageenan-induced paw edema and hyperalgesia models, the top efficacious dose of MGBG is 30 mg/kg PO BID (totaling 60 mg/kg/day). Based upon this dosing paradigm in mice, at least two methods to estimate the equivalent dosing in humans may be used.
(§2) In the murine carrageenan models, we also observed efficacy of MGBG at lower doses, including 3 mg/kg PO BID and 10 mg/kg PO BID, which would proportionally convert to human doses of ˜0.42 mg/kg/day and ˜1.2 mg/kg/day.

beagle dogs = test: In vivo evaluation of enterically coated capsules: tolerability / clinical observations; conditions: single oral doses 10, 30, 100 mg/kg
Description: A comparative study of single, escalating doses of enterically coated MGBG capsules was undertaken in order to ascertain the feasibility and pharmacologic effect of delaying release of MGBG until the capsule has passed the stomach. […] Six male beagle dogs aged approximately 4 years 8 months to 5 years 6 months and weighing 10.95 to 12.85 kg (Covance Research Products) were weighed, acclimatized, and randomly assigned to treatment groups as shown below in Table 5.
The test article was administered once at each dose level during the study orally via capsule. Duplicate sets of enteric-coated capsules were prepared for each animal at each dose and evaluated for dissolution. The duplicate sample was placed in a 0.1 N HCl solution, and stirred using a magnetic stir bar and stir plate, for at least two hours. Triplicate samples of the acidic dissolution media were collected for analysis of MGBG content. The capsule was transferred to a phosphate buffer solution (pH 6.8), and stirred using a magnetic stir bar and stir plate, for approximately one hour. The capsule was visually inspected for signs of deformation. […]
Observations for morbidity, mortality, injury, and the availability of food and water were conducted twice daily for all animals. […] On occasion, clinical observations were recorded at unscheduled intervals. Body weights were measured and recorded on Days 1-4, 5, 12, and 32.

[2] = Multi-species allometric scaling to predict human pharmacokinetic parameters; design: species or system humans; conditions: predicted human, ORAL, based on Mouse, Dog, Rhesus
Description: Multi-species allometric scaling based on pharmacokinetic parameters was employed to calculate predicted pharmacokinetic parameters in humans according to methods known in the art. See, e.g., Ings R M, “Interspecies scaling and comparisons in drug development and toxicokinetics,” Xenobiotica, 1990 November; 20(11):1201-31 and Khor, S P et al., “Dihydropyrimidine dehydrogenase inactivation and 5-fluorouracil pharmacokinetics: allometric scaling of animal data, pharmacokinetics and toxicodynamics of 5-fluorouracil in humans,” Cancer Chemother Pharmacol (1997) 39(3): 833-38. Expected values are given below in Table 2.

[3] = test system: carrageenan-induced hyperalgesia; test: murine carrageenan-induced hyperalgesia model; assay type: in vivo, mice; conditions: PO BID (totaling 60 mg/kg/day)
Description: as §1, §2

CC(/C=N/NC(=N)N)=N\NC(=N)N [MGBG, 1,1′[methylethanediylidene]dinitrilodiguanidine]
top efficacious dose [1]: 30 mg/kg | tolerability / survival (beagle dogs): All dose levels were tolerated with all animals surviving to study termination | CL/F [2]: 20.9 mL/min/kg | V/F [2]: 41.6 L/kg | t1/2 [2]: 23.0 h | CL/F ([2]; Rat): 21.0 mL/min/kg | V/F ([2]; Rat): 42.4 L/kg | t1/2 ([2]; Rat): 23.3 h | top efficacious dose [3]: 30 mg/kg
